{"source": "patent US20260345609A1", "about": "“METHODS FOR PROMOTING PERSISTENCE OF CELL THERAPY” (Legend Biotech Ireland Limited, priority 2022, published 2026)", "key": {"LUCAR-20SD cells": {"system": "LUCAR-20SD cells", "experiment": "In vitro mixed lymphoid (MLR) model with LUCAR-20SD cells, UnT and Raji cells: graft LUCAR-20SD cells", "format": "cell-based, human", "settings": "0.05 μM, 1 μM, 2 μM MTX", "method": "To evaluate the ability of LUCAR-20SD cells to tolerate allogeneic T cell rejection, an in vitro mixed lymphoid (MLR) model was established.\nUsing the T cells from a random healthy donor (B donor), LUCAR-20SD cells were prepared following the method in Example 1, as the graft cells. Un-transduced T cells (UnT) from another random healthy donor (Adonor) were also prepared, as the host cells.\nThe cell density of CD20 positive cells (lymphoma cell lines Raji, ATCC, CCL-86) was adjusted to 1×10^6 cells/mL. Raji cells were treated with 20 μg/mL mitomycin at 37° C. for 3 h, washed three times with 10 mL DPBS, and were resuspended in the culture medium. 20×10^6 untransduced T cells (UnT, T cell donor A), 1×10^6 LUCAR-20SD cells (T cell donor B), and 5×10^6 treated lymphoma cells Raji were mixed and cultured in the medium. The cell mixture was divided into 4 groups, and 0 μM MTX, 0.05 μM MTX, 1 μM MTX, or 2 μM MTX was added, respectively. […] According to the formula: fold change of cell number (UnT)=[cell number counted by AOPI×(CAR-CD5+%)]/20, fold change of cell number (LUCAR-20SD cells)=[cell number counted by AOPI×(CAR+CD5+%)]/1, the cell proliferation curves of UnT and LUCAR-20SD cells were plotted."}, "[1]": {"system": "untransduced T cells (UnT)", "experiment": "In vitro mixed lymphoid (MLR) model with CAR-γδT cells, UnT and U937 cells: host UnT cells", "format": "cell-based, human", "settings": "0.05 μM and 0.5 μM MTX; mixed culture with CAR-γδT and U937 cells", "method": "To evaluate the ability of γδ T cells to tolerate allogeneic T cell rejection, an in vitro mixed lymphoid (MLR) model was established.\nUsing the T cells from a random healthy donor (B donor), CAR-γδT cells were prepared following the method in Example 1, as the graft cells. Un-transduced T cells (UnT) from another random healthy donor (T cell donor A) were also prepared, as the host cells.\nThe density of CLL1 positive human lymphoma cells (U937) was adjusted to 1×10^6 cells/mL. U937 cells were treated with 20 μg/mL mitomycin at 37° C. for 3 h, washed three times with 10 mL DPBS, and suspended in the culture medium. 20×10^6 untransduced T cells (UnT, T cell donor A), 1×10^6 CAR-γδT cells (T cell donor B), and 5×10^6 treated human lymphoma cells U937 were mixed and cultured in the medium. The cell mixture was divided into 3 groups, and 0 μM, 0.05 μM MTX, or 0.5 μM MTX was added, respectively. […] CAR-γδT cells were stimulated repeatedly with U937 cells at day0, day4, day7 at an E/T ratio of 1:1 According to the formula: fold change of cell number (UnT)=[cell number counted by AOPI×(CD3-/TCR VY9+%)]/20, fold change of cell number (CAR-γδT)=[cell number counted by AOPI×(CD3+/TCR Vγ9+%)]/1, the cell proliferation curves of UnT and CAR-γδT cells were plotted."}, "[2]": {"system": "human gastric cancer cells NUGC4", "experiment": "In vivo efficacy in subcutaneous NUGC4 gastric cancer xenograft model, tumor volume", "parameters": "species or system NCG immunodeficient mice; human tumor cells", "settings": "G5, 22.635 mg/kg MTX alone i.p., day5 to day35, p>0.05", "excerpt": "Refer to Example 1, the fusion gene sequence of SIV Nef M116-IRES-CD8α SP Claudin18.2 VHH-CD8α Hinge-CD8α TM-4-1BB-ITAM010 (SEQ ID NO: 5) was cloned into the expression plasmid pLVX-hEF1α to form the M1645 expression plasmid. The anti-Claudin18.2 VHH, as well as the antigen binding domain of CAR, have been disclosed in PCT/CN2020/139143. TGB23-6-IRES-DHFR L22F/F31S (SEQ ID NO: 7) was cloned into the expression plasmid pLVX-hEF1α to form the M1647 expression plasmid. The fusion protein of TGB23-6 is a signal converter, and has been described in PCT/CN2022/087016. To obtain LUCAR-GC cells, M1645 and M1647 were transduced into T cells. The production of Virus vector and the transduction of primary T were completed with reference to Example 1.\nSeverely immunodeficient NCG mice were used for in vivo efficacy evaluation. On day −14 before treatment, NCG immunodeficient mice were inoculated subcutaneously with tumor cells (3×10^6 human gastric cancer cells NUGC4/mouse). […] During the experiment, animal status, survival, tumor volume and body weight were measured twice a week. […] The proportion of transplanted cells (hCD45+%/live) in the peripheral blood of mice was counted."}, "LUCAR-GC cells": {"system": "LUCAR-GC cells", "experiment": "Expansion of transplanted LUCAR-GC cells in peripheral blood of NUGC4 xenograft mice (hCD45+%/live)", "format": "in vivo, NCG immunodeficient mice; human cells", "settings": "22.635 mg/kg MTX i.p.", "excerpt": "Severely immunodeficient NCG mice were used for in vivo efficacy evaluation. On day −14 before treatment, NCG immunodeficient mice were inoculated subcutaneously with tumor cells (3×10^6 human gastric cancer cells NUGC4/mouse). The xenografted mice were divided into 5 groups ([…], G3, G4 and G5) on day 0, and received a single intravenous injection of HBSS (G1, G5), untransduced T cells (UnT) (G2, at a dose of 3.6×10^6 cells/mouse), LUCAR-GC cell preparation (G3 and G4, at a dose of 1×10^6 CAR+ cells/mouse). Mice in G4 and G5 groups were additionally given 22.635 mg/kg MTX by intraperitoneal injection on day5, day10, day 15, day20, day25, day30, day35, respectively. […] During the experiment, animal status, survival, tumor volume and body weight were measured twice a week. Blood was collected from the mouse eyeballs every week to separate cells, and then resuspended in DPBS with 1 μL of FITC anti human CD45 (Biolegend, 304038). The proportion of transplanted cells (hCD45+%/live) in the peripheral blood of mice was counted."}}}
{"smiles": "CN(Cc1cnc2nc(N)nc(N)c2n1)c1ccc(C(=O)N[C@@H](CCC(=O)O)C(=O)O)cc1", "note": "[MTX, methotrexate]", "values": [{"measurement": "protective effect on heterologous LUCAR-20SD cells", "setting": "LUCAR-20SD cells", "result": "good protective effect on heterologous LUCAR-20SD cells"}, {"measurement": "proliferation of UnT cells", "setting": "[1]", "result": "significantly inhibited"}, {"measurement": "tumor volume compared with control G1 and G2", "setting": "[2]", "result": "not significantly different"}, {"measurement": "expansion of LUCAR-GC cells in peripheral blood, presence or absence of MTX", "setting": "LUCAR-GC cells", "result": "no significant difference in the expansion of LUCAR-GC cells"}]}
